Measured values from patent publication US20250163104A1, “MACROCYCLIC IMMUNOMODULATORS” (priority 2021, published 2025).
Where a SMILES comes first, the peptide text is derived from it. Bridges are numbered along the chain shown (N, C = ends). [ ]: non-standard residue; d: D form. The star is where a group is joined. ξ: configuration not given here. Phe(4-COOH) = N[C@@H](Cc1ccc(C(=O)O)cc1)C(=O)O; Bip = N[C@@H](Cc1ccc(-c2ccccc2)cc1)C(=O)O; Phe(3-Cl) = N[C@@H](Cc1cccc(Cl)c1)C(=O)O; Phe(3-Me) = Cc1cccc(C[C@H](N)C(=O)O)c1; Val(3-OH) = CC(C)(O)[C@H](N)C(=O)O; 3Pal = N[C@@H](Cc1cccnc1)C(=O)O; 4Pal = N[C@@H](Cc1ccncc1)C(=O)O; Cha = N[C@@H](CC1CCCCC1)C(=O)O; hSer = N[C@@H](CCO)C(=O)O; Carboxymethyl = O=C(O)C*; Nle = CCCC[C@H](N)C(=O)O; Orn = NCCC[C@H](N)C(=O)O; Pra = C#CC[C@H](N)C(=O)O; Dab = NCC[C@H](N)C(=O)O; Dap = NC[C@H](N)C(=O)O; Aib = CC(C)(N)C(=O)O; NHCH2CH2OMe = COCCN*; Propargyl = C#CC*; ξA = CC(N)C(=O)O

target: T1, human PD-1 / PD-L1-Ig binding on Jurkat cell line over-expressing human PD-1 (Jurkat-PD-1) (Homo sapiens, UniProt Q15116); test: Jurkat-PD-1 Cell Binding High-Content Screening Assay (CBA); assay type: cell-based; conditions: Jurkat HPD1_PDL1 IC50, Jurkat-PD-1 cells, PE-labeled PD-L1-Ig 20 nM final
T1 construct: expressed in transfected cells; host or cells: Jurkat
T1 sequence (Q15116 25-288): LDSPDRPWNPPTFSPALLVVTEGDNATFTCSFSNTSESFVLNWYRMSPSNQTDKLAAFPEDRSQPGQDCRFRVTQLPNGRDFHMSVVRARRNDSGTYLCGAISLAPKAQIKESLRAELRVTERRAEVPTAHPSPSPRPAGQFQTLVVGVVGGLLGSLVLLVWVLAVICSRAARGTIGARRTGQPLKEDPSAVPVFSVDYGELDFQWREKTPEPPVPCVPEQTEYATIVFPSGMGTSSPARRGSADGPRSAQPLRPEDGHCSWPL
In short: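 Compounds were preincubated with Jurkat-hPD-1 cells in DMEM plus 10% fetal calf serum for 2 h at 37° C. Phycoerythrin-labeled PD-L1-Ig (20 nM final) was then added for 1 hour. Cells were fixed in 4% paraformaldehyde with Hoechst 33342, and bound fluorescence was quantified by high-content imaging.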

| Structure (SMILES) | IC50 [nM] |
| --- | --- |
| CC[C@H](C)[C@@H]1NC(=O)[C@H](Cc2ccc(-c3ccccc3)cc2)NC(=O)[C@H](C(C)C)NC(=O)[C@H](Cc2cccc(Cl)c2)NC(=O)[C@H](CC(=O)O)NC(=O)[C@H](Cc2ccc(C(=O)O)cc2)NC(=O)[C@H](Cc2ccncc2)NC(=O)CSC[C@@H](C(=O)N[C@@H](C)C(N)=O)NC(=O)[C@H]([C@@H](C)O)NC(=O)[C@H](C(C)C)NC(=O)[C@H](CC2CCCCC2)NC(=O)[C@H](CCN)NC(=O)[C@@H](CC(C)C)NC(=O)[C@H](CCCN)NC1=O [Compound 1558] | 15.8 |

same assay, conditions: Jurkat-PD-1 cells, PE-labeled PD-L1-Ig 20 nM final; read-out: Jurkat HPD1_PDL1 IC50

| IC50 [nM] | Structure (SMILES) |
| --- | --- |
| 7.2 | CC(C)C[C@@H]1NC(=O)[C@H](CCN)NC(=O)[C@@H](CC(C)C)NC(=O)[C@H](CCCN)NC(=O)[C@H](C(C)C)NC(=O)[C@H](Cc2ccc(-c3ccccc3)cc2)NC(=O)[C@H](C(C)C)NC(=O)[C@H](Cc2c[nH]c3ccccc23)NC(=O)[C@H](CC(=O)O)NC(=O)[C@H](Cc2ccc(C(=O)O)cc2)NC(=O)[C@H](Cc2cccnc2)NC(=O)CSC[C@@H](C(=O)N[C@@H](C)C(N)=O)NC(=O)[C@H]([C@@H](C)O)NC(=O)[C@H](C(C)C)NC1=O [Compound 1049] ({CH2CO}-[3Pal][Phe(4-COOH)]DWV[Bip]V[Orn][dL][Dab]LVTCA-NH2; thioether N-14) |
| 13.8 | CC(C)C[C@H]1NC(=O)[C@H](CCCN)NC(=O)[C@H](CCC(=O)O)NC(=O)[C@H](Cc2ccc(-c3ccccc3)cc2)NC(=O)[C@H](C(C)C)NC(=O)[C@H](Cc2cccc(Cl)c2)NC(=O)[C@H](CC(=O)O)NC(=O)[C@H](Cc2ccc(O)cc2)NC(=O)[C@H](CC(N)=O)NC(=O)CSC[C@@H](C(=O)N[C@@H](C)C(N)=O)NC(=O)[C@H]([C@@H](C)O)NC(=O)[C@H](C(C)C)NC(=O)[C@H](CC2CCCCC2)NC(=O)[C@H](CCN)NC1=O [Compound 1494] ({CH2CO}-NYD[Phe(3-Cl)]V[Bip]E[Orn][dL][Dab][Cha]VTCA-NH2; thioether N-14) |
| 8.8 | CC(C)C[C@@H]1NC(=O)[C@H](Cc2c[nH]c3ccccc23)NC(=O)[C@H](CC(=O)O)NC(=O)[C@H](Cc2ccc(O)cc2)NC(=O)[C@H](Cc2ccccc2)NC(=O)CSC[C@@H](C(=O)N[C@@H](C)C(N)=O)NC(=O)[C@H](CO)NC(=O)[C@H](C(C)C)NC(=O)[C@H](CC(C)C)NC(=O)[C@H](CCN)NC(=O)[C@@H](CC(C)C)NC(=O)[C@H](CCN)NC(=O)[C@H](C(C)C)NC(=O)[C@H](Cc2ccc(-c3ccccc3)cc2)NC1=O [Compound 1061] ({CH2CO}-FYDWL[Bip]V[Dab][dL][Dab]LVSCA-NH2; thioether N-14) |
| 17.4 | CC(C)C[C@@H]1NC(=O)[C@H](CCN)NC(=O)[C@@H](CC(C)C)NC(=O)[C@H](CCCN)NC(=O)[C@H](C(C)C)NC(=O)[C@H](Cc2ccc(-c3ccccc3)cc2)NC(=O)[C@H](C(C)C)NC(=O)[C@H](Cc2c[nH]c3ccccc23)NC(=O)[C@H](CC(=O)O)NC(=O)[C@H](Cc2ccncc2)NC(=O)[C@H](CN)NC(=O)CSC[C@@H](C(=O)NC(C)C(N)=O)NC(=O)[C@H]([C@@H](C)O)NC(=O)[C@H](C(C)C)NC1=O (stereo partly drawn) [Compound 1236] ({CH2CO}-[Dap][4Pal]DWV[Bip]V[Orn][dL][Dab]LVTC[ξA]-NH2; thioether N-14) |
| 8.3 | CCC(C)[C@@H]1NC(=O)[C@H](Cc2ccc(-c3ccccc3)cc2)NC(=O)[C@H](C(C)C)NC(=O)[C@H](Cc2c[nH]c3ccccc23)NC(=O)[C@H](CC(=O)O)NC(=O)[C@H](Cc2ccc(OCC(=O)O)cc2)NC(=O)[C@H](Cc2cc[nH]c2)NC(=O)CSC[C@@H](C(=O)N[C@H](C)C(N)=O)NC(=O)[C@H](C(C)O)NC(=O)[C@H](C(C)(C)O)NC(=O)[C@H](CC2CCCCC2)NC(=O)[C@H](CCN)NC(=O)[C@@H](CC(C)C)NC(=O)[C@H](CCCN)NC1=O (stereo partly drawn) [Compound 2662] |
| 8.8 | Cc1cccc(C[C@@H]2NC(=O)[C@H](CC(=O)O)NC(=O)[C@H](Cc3ccc(C(=O)O)cc3)NC(=O)[C@H](Cc3ccncc3)NC(=O)CSC[C@@H](C(=O)NC(C)(C)C(N)=O)NC(=O)[C@H](CO)NC(=O)[C@H](C(C)C)NC(=O)[C@H](CC3CCCCC3)NC(=O)[C@H](CCN)NC(=O)[C@@H](CC(C)C)NC(=O)[C@H](CCCN)NC(=O)[C@H](Cc3ccc(OCC(=O)O)cc3)NC(=O)[C@H](Cc3ccc(-c4ccccc4)cc3)NC(=O)[C@H](Cc3ccc(OCC(=O)O)cc3)NC2=O)c1 [Compound 2296] ({CH2CO}-[4Pal][Phe(4-COOH)]D[Phe(3-Me)]Y(Carboxymethyl)[Bip]Y(Carboxymethyl)[Orn][dL][Dab][Cha]VSC[Aib]-NH2; thioether N-14) |
| 0.7 | C#CCOc1ccc(C[C@@H]2NC(=O)[C@H](C(C)C)NC(=O)[C@H](CC3CCCCC3)NC(=O)[C@H](CCN)NC(=O)[C@@H](CC(C)C)NC(=O)[C@H](CCCN)NC(=O)[C@H](Cc3ccc(OCC(=O)O)cc3)NC(=O)[C@H](Cc3ccc(-c4ccccc4)cc3)NC(=O)[C@H](Cc3ccc(OCC(=O)O)cc3)NC(=O)[C@H](Cc3cccc(C)c3)NC(=O)[C@H](CC(=O)O)NC(=O)[C@H](Cc3ccc(OCC(=O)O)cc3)NC(=O)[C@H](Cc3cnc[nH]3)NC(=O)CSC[C@@H](C(=O)N[C@@H](CCN)C(N)=O)NC2=O)cc1 [Compound 1813] ({CH2CO}-HY(Carboxymethyl)D[Phe(3-Me)]Y(Carboxymethyl)[Bip]Y(Carboxymethyl)[Orn][dL][Dab][Cha]VY(Propargyl)C[Dab]-NH2; thioether N-14) |
| 5.5 | Cc1cccc(C[C@@H]2NC(=O)[C@H](CC(=O)O)NC(=O)[C@H](Cc3ccc(OCC(=O)O)cc3)NC(=O)[C@H](CN)NC(=O)CSC[C@@H](C(=O)N[C@@H](C)C(N)=O)NC(=O)[C@H](CCCN)NC(=O)[C@H](C(C)C)NC(=O)[C@H](CC3CCCCC3)NC(=O)[C@H](CCN)NC(=O)[C@@H](CC(C)C)NC(=O)[C@H](CCCN)NC(=O)[C@H](C(C)C)NC(=O)[C@H](Cc3ccc(-c4ccccc4)cc3)NC(=O)[C@H](C(C)C)NC2=O)c1 [Compound 1754] ({CH2CO}-[Dap]Y(Carboxymethyl)D[Phe(3-Me)]V[Bip]V[Orn][dL][Dab][Cha]V[Orn]CA-NH2; thioether N-14) |
| 68.6 | CC(C)C[C@H]1NC(=O)[C@H](CCCN)NC(=O)[C@H](CCC(=O)O)NC(=O)[C@H](Cc2ccc(-c3ccccc3)cc2)NC(=O)[C@H](C(C)C)NC(=O)[C@H](Cc2c[nH]c3ccccc23)NC(=O)[C@H](CC(=O)O)NC(=O)[C@H](Cc2ccc(OCC(=O)O)cc2)NC(=O)[C@H](CN)NC(=O)CSC[C@@H](C(=O)N[C@@H](C)C(N)=O)NC(=O)[C@H]([C@@H](C)O)NC(=O)[C@H](C(C)C)NC(=O)[C@H](Cc2cccc3ccccc23)NC(=O)[C@H](CCN)NC1=O [Compound 1474] |
| 55.3 | CCCC[C@@H]1NC(=O)[C@H](CC(N)=O)NC(=O)[C@@H](CC(C)C)NC(=O)[C@H](CN)NC(=O)[C@H](C(C)C)NC(=O)[C@H](Cc2ccc(-c3ccccc3)cc2)NC(=O)[C@H](CC(C)C)NC(=O)[C@H](Cc2c[nH]c3ccccc23)NC(=O)[C@H](CC(=O)O)NC(=O)[C@H](Cc2ccc(O)cc2)NC(=O)[C@H](Cc2ccccc2)NC(=O)CSC[C@@H](C(=O)NCC(N)=O)NC(=O)[C@H](CO)NC(=O)[C@H](C(C)C)NC1=O [Compound 1397] ({CH2CO}-FYDWL[Bip]V[Dap][dL]N[Nle]VSCG-NH2; thioether N-14) |
| 21.8 | Cc1cccc(C[C@@H]2NC(=O)[C@H](CC(=O)O)NC(=O)[C@H](Cc3ccc(C(=O)O)cc3)NC(=O)[C@H](Cc3ccncc3)NC(=O)CSC[C@@H](C(N)=O)NC(=O)[C@H]([C@@H](C)O)NC(=O)[C@H](C(C)C)NC(=O)[C@H](CC3CCCCC3)NC(=O)[C@H](CCN)NC(=O)[C@@H](CC(C)C)NC(=O)[C@H](CCCN)NC(=O)[C@H](CCC(=O)O)NC(=O)[C@H](Cc3ccc(-c4ccccc4)cc3)NC(=O)[C@H](C(C)C)NC2=O)c1 [Compound 1552] ({CH2CO}-[4Pal][Phe(4-COOH)]D[Phe(3-Me)]V[Bip]E[Orn][dL][Dab][Cha]VTC-NH2; thioether N-14) |
| 4.1 | COCCNC(=O)[C@H](CCN)NC(=O)[C@@H]1CSCC(=O)N[C@@H](CCOC)C(=O)N[C@@H](Cc2ccc(OCC(=O)O)cc2)C(=O)N[C@@H](CC(=O)O)C(=O)N[C@@H](Cc2cccc(C)c2)C(=O)N[C@@H](Cc2ccc(OCC(=O)O)cc2)C(=O)N[C@@H](Cc2ccc(-c3ccccc3)cc2)C(=O)N[C@@H](Cc2ccc(OCC(=O)O)cc2)C(=O)N[C@@H](CCCN)C(=O)N[C@H](CC(C)C)C(=O)N[C@@H](CCN)C(=O)N[C@@H](CC2CCCCC2)C(=O)N[C@@H](C(C)(C)O)C(=O)N[C@@H](CO)C(=O)N1 [Compound 2075] ({CH2CO}-[hSer](Me)Y(Carboxymethyl)D[Phe(3-Me)]Y(Carboxymethyl)[Bip]Y(Carboxymethyl)[Orn][dL][Dab][Cha][Val(3-OH)]SC[Dab]-NHCH2CH2OMe; thioether N-14) |
| 17.6 | CC(C)C[C@@H]1NC(=O)[C@H](CCN)NC(=O)[C@@H](CC(C)C)NC(=O)[C@H](CCCCN)NC(=O)[C@H](C(C)C)NC(=O)[C@H](Cc2ccc(-c3ccccc3)cc2)NC(=O)[C@H](C(C)C)NC(=O)[C@H](Cc2c[nH]c3ccccc23)NC(=O)[C@H](CC(=O)O)NC(=O)[C@H](Cc2ccc(O)cc2)NC(=O)[C@H](CC(N)=O)NC(=O)CSC[C@@H](C(=O)N[C@@H](C)C(N)=O)NC(=O)[C@H](CO)NC(=O)[C@H](C(C)C)NC1=O [Compound 1128] ({CH2CO}-NYDWV[Bip]VK[dL][Dab]LVSCA-NH2; thioether N-14) |
| 24.7 | C#CC[C@H](NC(=O)[C@H](CCC(=O)O)NC(=O)[C@@H]1CSCC(=O)N[C@@H](CN)C(=O)N[C@@H](Cc2ccc(OCC(=O)O)cc2)C(=O)N[C@@H](CC(=O)O)C(=O)N[C@@H](Cc2cccc(C)c2)C(=O)N[C@@H](Cc2ccc(OCC(=O)O)cc2)C(=O)N[C@@H](Cc2ccc(-c3ccccc3)cc2)C(=O)N[C@@H](Cc2ccc(OCC(=O)O)cc2)C(=O)N[C@@H](CCCN)C(=O)N[C@H](CC(C)C)C(=O)N[C@@H](CCN)C(=O)N[C@@H](CC2CCCCC2)C(=O)N[C@@H](C(C)C)C(=O)N[C@@H]([C@@H](C)O)C(=O)N1)C(N)=O [Compound 1803] ({CH2CO}-[Dap]Y(Carboxymethyl)D[Phe(3-Me)]Y(Carboxymethyl)[Bip]Y(Carboxymethyl)[Orn][dL][Dab][Cha]VTCE[Pra]-NH2; thioether N-14) |
